Source: US9422293B2 (priority 2006, dated 2016)
Structures can show the parent of a compound that is named as a salt.

Biological target: rat TRPV1 (Rattus norvegicus (Rat), UniProt O35433)
Assay: cell-based
Conditions: Rat IC50 (μM)

Sequence of rat TRPV1 (O35433 whole entry): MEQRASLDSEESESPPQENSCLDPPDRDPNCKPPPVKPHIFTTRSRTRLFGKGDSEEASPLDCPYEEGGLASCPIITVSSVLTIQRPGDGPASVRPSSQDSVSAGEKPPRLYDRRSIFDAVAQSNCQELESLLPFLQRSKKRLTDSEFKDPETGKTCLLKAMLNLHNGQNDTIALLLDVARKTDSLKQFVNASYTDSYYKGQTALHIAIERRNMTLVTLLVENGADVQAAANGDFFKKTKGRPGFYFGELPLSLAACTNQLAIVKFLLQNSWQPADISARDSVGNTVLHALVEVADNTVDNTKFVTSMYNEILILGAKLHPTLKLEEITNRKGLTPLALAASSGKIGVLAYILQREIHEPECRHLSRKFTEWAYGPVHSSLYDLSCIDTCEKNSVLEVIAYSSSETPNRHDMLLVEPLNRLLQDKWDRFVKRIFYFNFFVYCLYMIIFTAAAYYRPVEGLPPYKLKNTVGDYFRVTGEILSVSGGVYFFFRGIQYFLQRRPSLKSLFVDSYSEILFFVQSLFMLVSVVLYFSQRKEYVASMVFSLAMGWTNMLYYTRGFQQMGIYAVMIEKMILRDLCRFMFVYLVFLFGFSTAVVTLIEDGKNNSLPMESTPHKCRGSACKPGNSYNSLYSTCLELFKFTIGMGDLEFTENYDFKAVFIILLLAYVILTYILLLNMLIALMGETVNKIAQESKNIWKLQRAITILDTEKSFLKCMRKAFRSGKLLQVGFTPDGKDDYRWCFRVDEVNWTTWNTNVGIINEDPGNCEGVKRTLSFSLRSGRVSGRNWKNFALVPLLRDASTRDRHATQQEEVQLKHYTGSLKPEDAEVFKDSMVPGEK

SMILES | IC50
COC(=O)c1cnc(N2CCc3nc(S(C)(=O)=O)nc(Nc4ccc(C(F)(F)F)cc4)c3CC2)c(Cl)c1 [Example 211, Methyl 5-chloro-6-[2-(methylsulfonyl)-4-{[4-(trifluoromethyl)phenyl]amino}-5,6,8,9-tetrahydro-7H-pyrimido[4,5-d]azepin-7-yl]pyridine-3-carboxylate] | 11.4 µM
FC(F)(F)c1ccc(Nc2nc(NC3CCOC3)nc3c2CCN(c2ncccc2C(F)(F)F)CC3)cc1 (stereo not drawn) [Example 265, N^2-(Tetrahydro-furan-3-yl)-N^4-(4-trifluoromethyl-phenyl)-7-(3-trifluoromethyl-pyridin-2-yl)-6,7,8,9-tetrahydro-5H-pyrimido[4,5-d]azepine-2,4-diamine trifluoroacetic acid salt] | 0.39 µM
